Measurements published in patent US20070179085A1, “MODULATION OF RHAMM-CAVEOLIN/LIPID RAFT INTERACTIONS TO AFFECT DEVELOPMENT, RESPONSES TO TISSUE INJURY, ANGIOGENESIS, TUMORIGENESIS, METASTASIS AND GROWTH FACTOR/CYTOKINE RESPONSES” (priority 2005, published 2007).

How the values were obtained:
70 kDa RHAMM [1] = assay: GPI-anchor identification: Triton X-114 phase separation, PI-PLC, surface biotin labeling; assay type: cell-based, rat; conditions: co-treatment with PDGF-BB and mannosamine 10 mM for six hours
Experimental: Differential solubilization and temperature-induced Triton X-114 phase separation was performed as briefly described with 75-100 μg of membrane protein. Cells were grown to confluency and quiesced for 48 hours at which point cells were harvested for membrane protein. Some samples were incubated with PI-PLC for 1 hour at 37° C. before proceeding with Triton X-114 phase separation. PI-PLC was used at 0.375 U/100 μg membrane protein. In separate experiments Mannosamine-HCl was used at 10 mM during 6 hour PDGF-BB treatment. For radiolabel experiments, cells were grown to confluency and quiesced for 48 hours in inositol-free media and then incubated with 4 μCi/mL of ^3H myo-inositol during 6 hour PDGF-BB treatment. For surface biotinylation experiments, media was removed after treatment and replaced with 1 mg/ml biotin in defined media and incubated for 20 minutes at 37° C.

RHAMM:caveolin = assay: Co-immunoprecipitation of RHAMM and caveolin-1 from SMC lysates; assay type: cell-based, rat; conditions: peptide 24 hours prior to and during 6 hour PDGF-BB treatment
Experimental: For standard experiment, 100 μg of lysate was used. Samples were pre-cleared with 50 μl of Protein G-agarose for 60 minutes at room temperature while rotating then centrifuged at 13000 g for 5 minutes. The supernatant was transferred to a new tube and incubated with 1 μg of antibody overnight at 4° C. while rotating. The samples were then incubated with 20 μl of Protein G-agarose for 1 hour at 4° C. while rotating. Beads were collected by centrifugation (1 minute at high speed) and then washed three times with lysis buffer (50 mM Tris, pH 8.0/140 mM NaCl/[…]/0.4% Deoxycholate/protease inhibitor cocktail (Boehringer Manheim). The beads were resuspended in at least 40 μl of 2× Novex Sample Buffer and western blot was performed as per NUPAGE protocol (Invitrogen). Primary and secondary antibodies were diluted (R36: 5 μg/ml, Caveolin-1: 0.25 μg/ml) and pre-incubated together over-night before use. For biotin labeling experiments, 6 μl of streptavidin-agarose was added to 25 μg of protein and incubated for 3 hours at 4° C. Beads were collected by centrifugation at 13000 g for 1 minute, washed and resuspended in Novex sample buffer as above.
Therefore, peptides were used to interfere with RHAMM:caveolin to establish direct protein-protein interactions. […]

erk = assay: Immunoblot for total and phosphorylated-erk in PDGF-BB stimulated SMC; assay type: cell-based, rat; conditions: peptide pretreatment 24 hours, then 10-minute PDGF-BB
70 kDa RHAMM [2] = assay: MBCD-mediated release of RHAMM from SMC (caveolar disruption); assay type: cell-based, rat; conditions: MBCD 30 minutes, absence of PDGF-BB
Experimental: Caveolar disruption was performed as described below. Cells were grown to confluency in 150 mm dishes and quiesced for 48 hr. After 6 hr PDGF treatment, media was removed and replaced with 20 mm methyl-beta-cyclodextrin in TKM buffer (50 mM Tris-HCl, pH7.4, 25 mM KCl, 5 mM MgCl, 1 mM EDTA). Cells were incubated for 20-30 minutes at 37° C., and the cell-free supernatant was collected after centrifugation at 2000 g for 10 minutes.
Since the GPI anchor links to a hydrophobic lipid tail that inserts into the exoplasmic leaflet of the cell membrane, a liquid ordered arrangement is necessary to maintain its integrity. […] Methyl-beta-cyclodextrin (MBCD), a cell surface-specific cholesterol-extracting agent, can be used to disrupt lipid rafts and caveolae to release endogenous GPI-anchored proteins (Ilangumaran, Madore, McCabe). […] Proteins in the cholesterol-rich annulus are sensitive whereas those in the sphingolipid core are resistant to release by MBCD. SMC cultures were treated with MBCD for 30 minutes, and the cell free supernatant was collected. The supernatant was run by volume on SDS-PAGE and immunoblotted for RHAMM and urokinase-plasmingen activator receptor (uPAR), a defined GPI-anchored protein previously shown to be present in lipid domains. Without MBCD, RHAMM was not released into the supernatant in detectable amounts, irrespective of PDGF-BB treatment (FIG. 11a, lane 2 vs 4). […]

rat aortic SMC [3] = assay: SMC migration at leading edge of single scratch wounds (timelapse cinemicrography); assay type: cell-based
Experimental: Primary cultures of rat aortic SMC were established as previously described. […]
The medium of confluent SMC cultures was then changed to DMEM defined medium for 48 hours for quiescence. Migration of SMC at the leading edge of single scratch wounds of confluent cultures was determined using timelapse cinemicrography as previously described and summarized below. […] Media HA concentration was determined as described below. […]
SMC plated in DMEM complete medium were allowed to grow to confluence. After overnight quiescence, a single scratch wound was made in the center of the culture plate using a sterile cell scraper and fresh defined medium was added The motility of cells at the leading edge of these wounds was determined using timelapse cinemicrography (Metamorph, Universal Imaging Corporation, West Chester, Pa.) as previously described. Briefly, cells were monitored using a Nikon TE-300 inverted microscope (Nikon Instruments, Inc., Melville, N.Y.) to which a video camera (Hamamatsu CCD, Inc., Hamamatsu City, Japan) was attached. At least 20 cells per high power field were imaged every hour and the mean distance traveled per frame was measured to obtain mean cell velocities.

SMC = conditions: 0.0 μg/ml of HA; previously demonstrated; cited from earlier work
rat aortic SMC [4] = assay: SMC proliferation (MTS assay); assay type: cell-based
Experimental: In order to determine the effect of PDGF-BB on SMC proliferation, 80% confluent and quiescent cultures of SMC were stimulated for 72 hours with varying doses of PDGF-BB (2-50 ng/ml) and cell number was determined using the MTS assay as described in Methods. A bell-shaped dose response curve was obtained with maximum stimulation of SMC proliferation at 10-25 ng/ml (FIG. 7d, *p<0.01 vs. control).
The effect of HA on SMC proliferation and modulation by PDGF-BB was also examined. SMC that were either maintained in serum-free medium or pre-stimulated with 10 ng/ml PDGF-BB for 24 hours were exposed to HA in serum-free medium at concentrations of 0.1-1000 μg/ml for 48 hours. […] As expected, baseline proliferation was increased in SMC cultures following exposure to 10 ng/ml PDGF-BB for 24 hours (FIG. 7e, *p<0.01 vs. non-stimulated cells). […] In order to determine the contribution of RHAMM to SMC proliferation induced by HA, SMC cultures were treated with R36 throughout the pre-stimulation period with PDGF-BB and subsequently during HA stimulation. Non-immune IgG was used as a negative control and a blocking anti-PDGF-BB antibody was used as a positive inhibitory control. Cell number was determined by MTS assay 48 hours after HA stimulation with and without antibody treatments. As noted before, PDGF-BB pretreatment increased baseline proliferation, FIG. 7e*p<0.01 vs. no PDGF), and HA stimulated a further 25% increase in proliferation, FIG. 7e**p<0.05 vs. PDGF, no HA). […] Anti-PDGF-BB antibody blocked 50% of the PDGF-mediated increase in baseline proliferation, FIG. 7e#p<0.01 anti-PDGF vs. normal IgG).

rat aortic SMC [5] = assay: HA content of medium of SMC cultures (ELISA like assay); assay type: cell-based; conditions: quiescent SMC treated 24 hours, normalized to total protein
Experimental: The medium of confluent SMC cultures was then changed to DMEM defined medium for 48 hours for quiescence. Migration of SMC at the leading edge of single scratch wounds of confluent cultures was determined using timelapse cinemicrography as previously described and summarized below. To observe the effect of HA on this migratory response to wounding, cultures were stimulated with varying concentrations of HA (0.1-100 μg/ml) and studied for 24 hours. For PDGF-BB stimulated HA synthesis experiments, quiescent SMC were stimulated with varying doses of PDGF-BB (2-100 ng/ml) for 24 hours. Media HA concentration was determined as described below. All experiments described below included 10 replicates and each experiment was repeated at least 3 times.
A modified ELISA assay was utilized for determination of HA concentration.
In order to determine the optimal concentration of PDGF-BB required to simulate HA synthesis in SMC, the HA content of medium from quiescent SMC treated for 24 hours with various concentrations of PDGF-BB was determined using an ELISA like assay for HA. Resulting values were normalized to the total protein content of the cultures. […] We therefore used this concentration of PDGF-BB for all subsequent experiments.

N[C@@H]1C(O)O[C@H](CO)[C@@H](O)[C@@H]1O (stereo partly drawn) [mannosamine]
presence of RHAMM in pellet phase after Triton X-114 fractionation (70 kDa RHAMM [1]): completely inhibited

CAV: caveolin scaffolding domain (aa 82-101) peptide fused to antenapedia sequence (RQIKIWFQNRRMKWKKDGIWKASFTTFTVTKYWFYR)
co-immunoprecipitation of RHAMM and caveolin-1 (RHAMM:caveolin): decreased co-immunoprecipitation | PDGF-BB-induced erk phosphorylation after peptide pretreatment (erk): inhibited

Methyl-beta-cyclodextrin [MBCD]
release of 70 kDa RHAMM into supernatant by MBCD (70 kDa RHAMM [2]): released into supernatant

RM: peptide of RHAMM caveolin-binding motif (KWRLL YEEL YDKTKPFQ) fused to antenapedia sequence RQIKIWFQNRRMKWKK (YDKTKPFQRQIKIWFQNRRMKWKK)
co-immunoprecipitation of RHAMM and caveolin-1 (RHAMM:caveolin): decreased co-immunoprecipitation | PDGF-BB-induced erk phosphorylation after peptide pretreatment (erk): inhibited

hyaluronan [HA]
effect of exogenous HA on SMC migration after single scratch wounding (rat aortic SMC [3]; 0.001 μg/ml HA added to wounded cultures): further stimulation of SMC that continued up to 18 hours | random migration of sub-confluent SMC cultures (SMC): increases their random migration | proliferative response of SMC to HA without PDGF-BB pre-stimulation (rat aortic SMC [4]; HA 0.1-1000 μg/ml, 48 hours, serum-free medium): no proliferative response | HA concentration of maximal proliferative response (rat aortic SMC [4]; after pre-stimulation with 10 ng/ml PDGF-BB): 100 µg/mL | further increase in SMC proliferation in response to HA (rat aortic SMC [4]; after pre-stimulation with 10 ng/ml PDGF-BB for 24 hours, HA 48 hours): 25%

B1: PDGF-BB: Platelet-Derived Growth Factor BB dimer, obtained from R & D Systems (protein, UniProt P01127 82-190, looked up)
Platelet-derived growth …: SLGSLTIAEPAMIAECKTRTEVFEISRRLIDRTNANFLVWPPCVEVQRCSGCCNNRNVQCRPTQVQLRPVQVRKIEIVRKKPIFKKATVTLEDHLACKCETVAAARPVT
modifications: homodimer BB
notes: Platelet-Derived Growth Factor BB dimer, obtained from R & D Systems
PDGF-BB dose of maximal HA synthesis (rat aortic SMC [5]): 10 ng/mL | increase of mean cell velocity of SMC at leading edge of wounds (rat aortic SMC [3]; PDGF-BB 10 ng/ml vs non-stimulated control): two-fold | baseline SMC proliferation (rat aortic SMC [4]; 10 ng/ml PDGF-BB for 24 hours): increased | PDGF-BB dose of maximum stimulation of SMC proliferation (rat aortic SMC [4]; 72 hours, doses 2-50 ng/ml, bell-shaped curve): 10 to 25 ng/mL
